Test: xn = mol fraction of the nth substance listed
Conditions: 101 kPa

CCC(=O)O.CCC(=O)[O-].CC[NH+](CC)CCO + CCCC[n+]1ccn(C)c1.COP(=O)([O-])OC
viscosity [mPa·s]
Conditions | x1 = 0.08 | x1 = 0.1549 | x1 = 0.2364 | x1 = 0.3281 | x1 = 0.4183 | x1 = 0.4953 | x1 = 0.6252 | x1 = 0.7416 | x1 = 0.8667 | x1 = 1
278.15 K | – | 1099.1 | 655 | 428 | 329 | 294 | 241.4 | 208.2 | 184.2 | 244
283.15 K | 1248.1 | 726 | – | 297 | 230.3 | – | – | – | 131 | 169
288.15 K | 822 | 494 | 311 | 211.1 | 165.3 | 147.5 | – | 107.1 | 95.3 | 120.7
293.15 K | 559 | 346 | 223.3 | – | 121.5 | 108.6 | 91.7 | 79.5 | – | 88.3
298.15 K | 391 | 248.6 | 164.2 | 114.9 | 91.4 | 81.8 | 69.5 | – | 53.8 | –
303.15 K | – | 183.2 | – | 87.6 | – | 62.8 | 53.7 | 46.6 | – | 50.6
308.15 K | 206.6 | 137.9 | 94.7 | 68 | – | 49.2 | 42.2 | 36.7 | – | 39.4
313.15 K | 155.3 | 105.8 | 73.9 | – | 43.7 | – | 33.7 | 29.3 | 26.3 | 31.2
318.15 K | 119 | 82.7 | 58.7 | 43.2 | 35.28 | 31.69 | – | 23.81 | 21.38 | 25.1
323.15 K | 92.7 | 65.7 | – | 35.21 | 28.91 | – | 22.51 | 19.58 | 17.6 | 20.5
328.15 K | 73.5 | 52.95 | – | 29.06 | 23.98 | 21.58 | 18.74 | – | – | 16.89
333.15 K | 59.07 | 43.24 | 31.98 | 24.27 | 20.13 | – | 15.77 | 13.7 | – | –
338.15 K | – | 35.76 | – | 20.49 | 17.07 | 15.33 | – | – | 10.47 | 11.89
343.15 K | 39.67 | 29.9 | 22.63 | 17.47 | 14.6 | – | 11.5 | 9.98 | 8.98 | 10.12
348.15 K | 33.08 | – | 19.32 | 15.03 | – | 11.29 | – | 8.63 | – | 8.68
353.15 K | 27.89 | – | 16.64 | 13.04 | – | 9.81 | 8.67 | 7.52 | 6.75 | 7.5
358.15 K | 23.73 | 18.56 | 14.45 | 11.4 | – | – | – | 6.59 | 5.91 | 6.52
363.15 K | 20.39 | 16.1 | 12.65 | 10.04 | 8.5 | 7.58 | 6.72 | – | 5.21 | –
368.15 K | – | – | 11.15 | 8.9 | 7.55 | 6.73 | 5.98 | – | 4.62 | 5.01
373.15 K | 15.41 | 12.4 | 9.89 | 7.94 | 6.75 | 6.01 | 5.34 | – | 4.11 | –

CC(=O)[O-].CCCC[NH2+]CCO + CCCC[n+]1ccn(C)c1.O=S(=O)([N-]S(=O)(=O)C(F)(F)F)C(F)(F)F
viscosity [mPa·s]
Conditions | x1 = 0.1012 | x1 = 0.2257 | x1 = 0.3002 | x1 = 0.423 | x1 = 0.4998 | x1 = 0.6018 | x1 = 0.6987 | x1 = 0.8008 | x1 = 0.901 | x1 = 1
278.15 K | – | – | – | – | – | – | – | – | – | 6138
283.15 K | – | 183.1 | 226.7 | 353 | 481 | 745 | 1144.5 | – | 2806 | –
288.15 K | 96.2 | 134.7 | – | 248.3 | 331.5 | 499 | 745 | – | 1734.8 | 2230
293.15 K | 74.29 | 101.5 | 121.9 | 179.1 | 234.7 | 344 | 501 | 765 | 1109.3 | 1412.3
298.15 K | 58.45 | – | 92.4 | 132.2 | 170.1 | 243.1 | 346 | – | – | –
303.15 K | 46.77 | 61.09 | 71.45 | 99.7 | – | 176 | 244.7 | – | 495 | 617
308.15 K | 38.01 | 48.63 | – | 76.6 | 95.3 | 130.1 | 177.2 | 251.7 | 343 | –
313.15 K | 31.32 | 39.3 | 44.89 | 59.83 | – | 98.1 | – | – | – | –
318.15 K | 26.13 | – | 36.38 | 47.48 | 57.42 | 75.3 | – | 134.2 | – | 212.7
323.15 K | 22.05 | 26.72 | 29.87 | 38.23 | 45.61 | 58.7 | – | 100.8 | 130.4 | 155.3
328.15 K | 18.81 | – | 24.83 | 31.18 | 36.74 | – | 58.7 | 77 | – | 115.3
333.15 K | 16.19 | 19 | 20.86 | 25.75 | 29.98 | 37.29 | 46.37 | 59.7 | 74.8 | 87
338.15 K | 14.06 | 16.27 | 17.7 | 21.49 | 24.74 | 30.3 | – | 47.02 | 58 | 66.7
343.15 K | 12.31 | – | 15.16 | 18.12 | – | 24.92 | 30.07 | 37.51 | – | –
348.15 K | 10.85 | 12.23 | 13.09 | – | 17.4 | 20.7 | 24.65 | 30.28 | 36.31 | 40.87
353.15 K | 9.63 | 10.72 | 11.4 | 13.24 | 14.79 | 17.37 | 20.42 | 24.73 | – | –
358.15 K | 8.6 | 9.47 | – | – | – | 14.71 | 17.08 | 20.41 | 23.84 | 26.29
363.15 K | 7.73 | 8.41 | 8.82 | – | 10.96 | 12.57 | 14.42 | 17 | 19.63 | –
368.15 K | 6.98 | 7.51 | 7.83 | 8.76 | 9.54 | 10.81 | 12.27 | – | 16.31 | –
373.15 K | 6.33 | 6.75 | – | – | – | 9.37 | 10.52 | 12.11 | 13.67 | –

Source: a compilation of properties of binary mixtures (doi:10.1016/j.fluid.2020.112621)
